Measurements published in patent US8952024B2, “Herbicidal pyrimidone derivatives” (E I du Pont de Nemours and Company, priority 2009, dated 2015).

Columns and labels:
Assay type in all cases: in vivo
[1] = test system: windgrass (Apera spica-venti); test: Test B postemergence plant response; details: Postemergence
Outline: (§1)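 Plants at the 1- to 4-leaf stage (2 to 18 cm tall), grown in pots of peat moss/vermiculite medium with wetting agent and starter nutrients, received postemergence applications of test chemicals. After 13 to 15 days in a greenhouse, injury was rated visually against untreated controls on a 0 (no effect) to 100 (complete control) scale.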

[2] = test system: chickweed (Stellaria media); test: Test B postemergence plant response; details: Postemergence
Outline: as §1

[3] = test system: canarygrass (Phalaris minor); test: Test B postemergence plant response; details: Postemergence
Outline: as §1

[4] = test system: pigweed (Amaranthus retroflexus); test: Test B pre-/postemergence plant response; details: Postemergence
Outline: (§2)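 Seeds were sown in loam soil/sand blend and treated preemergence with compound in non-phytotoxic solvent mixture containing surfactant; postemergence sprays, same formulation, went onto plants 2 to 18 cm (1- to 4-leaf stage) in peat-based planting medium. Greenhouse 13 to 15 days, then visual rating versus untreated controls, 0 (no effect) to 100 (complete control).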

[5] = test system: Surinam grass (Brachiaria decumbens); test: Test B pre-/postemergence plant response; details: Postemergence
Outline: as §2

soybean (Glycine max) = test: Test B pre-/postemergence plant response; details: Postemergence
Outline: as §2

[6] = test system: blackgrass (Alopecurus myosuroides); test: Test B pre-/postemergence plant response; details: for Plant response rating, Blackgrass: Postemergence
Outline: as §2

[7] = test system: wheat (Triticum aestivum); test: Test B pre-/postemergence plant response; details: Postemergence
Outline: as §2

[8] = test system: cocklebur (Xanthium strumarium); test: Test B pre-/postemergence plant response; details: Postemergence
Outline: as §2

[9] = test system: velvetleaf (Abutilon theophrasti); test: Test B pre-/postemergence plant response; details: Postemergence
Outline: as §2

[10] = test system: lambsquarters (Chenopodium album); test: Test B pre-/postemergence plant response; details: Postemergence
Outline: as §2

kochia (Kochia scoparia) = test: Test B pre-/postemergence plant response; details: Postemergence
Outline: as §2

wild oat (Avena fatua) = test: Test B pre-/postemergence plant response; details: Postemergence
Outline: as §2

[11] = 31 g ai/ha, 0 to 100 scale (0 no effect, 100 complete control)
[12] = 125 g ai/ha, scale 0 to 100 (0 no effect, 100 complete control)
[13] = 250 g ai/ha, scale 0 to 100 (0 no effect, 100 complete control), 13 to 15 days
[14] = 62 g ai/ha, scale 0 to 100 (0 no effect, 100 complete control)

Cc1ccc(Cl)cc1-n1c(-c2cccc(F)c2)ncc(C(=O)C2=C(O)CCCC2=O)c1=O [Compound 184]
Plant response rating, Windgrass [1, 11]: 60 | Plant response rating, Windgrass [1, 12]: 90 | Plant response rating, Windgrass [1, 13]: 100 | Plant response rating, Chickweed [2, 11]: 100 | Plant response rating, Chickweed [2, 12]: 100 | Plant response rating, Chickweed [2, 13]: 100 | Plant response rating, Canarygrass [3, 11]: 45 | Plant response rating, Canarygrass [3, 12]: 80 | Plant response rating, Canarygrass [3, 13]: 95 | Plant response rating, Pigweed [4, 11]: 70 | Plant response rating, Pigweed [4, 12]: 75 | Plant response rating, Pigweed [4, 13]: 100 | Plant response rating, Surinam Grass [5, 11]: 80 | Plant response rating, Surinam Grass [5, 12]: 100 | Plant response rating, Surinam Grass [5, 13]: 100 | Plant response rating, Soybean (soybean (Glycine max); [11]): 98 | Plant response rating, Soybean (soybean (Glycine max); [12]): 100 | Plant response rating, Soybean (soybean (Glycine max); [13]): 100 | Blackgrass plant response rating (0 to 100 scale) ([6]; 62 g ai/ha, postemergence, 0 is no effect, 100 is complete control, 13 to 15 days): 35 | Plant response rating, Blackgrass [6, 11]: 30 | Plant response rating, Blackgrass [6, 12]: 40 | Plant response rating, Blackgrass [6, 13]: 50 | Plant response rating, Wheat [7, 11]: 30 | Plant response rating, Wheat [7, 12]: 55 | Plant response rating, Wheat [7, 13]: 60 | Plant response rating, Cocklebur [8, 11]: 100 | Plant response rating, Cocklebur [8, 12]: 100 | Plant response rating, Cocklebur [8, 13]: 100 | Plant response rating, Velvetleaf [9, 11]: 85 | Plant response rating, Velvetleaf [9, 12]: 100 | Plant response rating, Velvetleaf [9, 13]: 100 | Plant response rating, Lambsquarters [10, 11]: 80 | Plant response rating, Lambsquarters [10, 12]: 100 | Plant response rating, Lambsquarters [10, 13]: 100 | Plant response rating, Kochia (kochia (Kochia scoparia); [11]): 0 | Plant response rating, Kochia (kochia (Kochia scoparia); [12]): 5 | Plant response rating, Kochia (kochia (Kochia scoparia); [13]): 10 | Plant response rating, Oat, Wild (wild oat (Avena fatua); [11]): 40 | Plant response rating, Oat, Wild (wild oat (Avena fatua); [12]): 80 | Plant response rating, Oat, Wild (wild oat (Avena fatua); [13]): 98

CCCn1c(-c2ccsc2)ncc(C(=O)C2=C(O)C3CCC(C3)C2=O)c1=O (stereo not shown) [Compound 227]
Plant response rating, Windgrass [1, 11]: 0 | Plant response rating, Windgrass [1, 14]: 30 | Plant response rating, Windgrass [1, 13]: 50 | Plant response rating, Chickweed [2, 11]: 65 | Plant response rating, Chickweed [2, 14]: 75 | Plant response rating, Chickweed [2, 12]: 80 | Plant response rating, Chickweed [2, 13]: 90 | Plant response rating, Canarygrass [3, 11]: 0 | Plant response rating, Canarygrass [3, 14]: 0 | Plant response rating, Canarygrass [3, 12]: 5 | Plant response rating, Canarygrass [3, 13]: 10 | Plant response rating, Pigweed [4, 11]: 80 | Plant response rating, Pigweed [4, 14]: 90 | Plant response rating, Pigweed [4, 13]: 100 | Plant response rating, Surinam Grass [5, 11]: 55 | Plant response rating, Surinam Grass [5, 14]: 70 | Plant response rating, Surinam Grass [5, 13]: 95 | Plant response rating, Soybean (soybean (Glycine max); [11]): 55 | Plant response rating, Soybean (soybean (Glycine max); [14]): 65 | Plant response rating, Soybean (soybean (Glycine max); [13]): 98 | Plant response rating, Blackgrass [6, 11]: 0 | Plant response rating, Blackgrass [6, 14]: 0 | Plant response rating, Blackgrass [6, 12]: 5 | Plant response rating, Blackgrass [6, 13]: 20 | Plant response rating, Wheat [7, 11]: 0 | Plant response rating, Wheat [7, 14]: 0 | Plant response rating, Wheat [7, 13]: 20 | Plant response rating, Cocklebur [8, 11]: 75 | Plant response rating, Cocklebur [8, 14]: 80 | Plant response rating, Cocklebur [8, 12]: 95 | Plant response rating, Cocklebur [8, 13]: 95 | Plant response rating, Velvetleaf [9, 11]: 80 | Plant response rating, Velvetleaf [9, 14]: 80 | Plant response rating, Velvetleaf [9, 13]: 98 | Plant response rating, Lambsquarters [10, 11]: 90 | Plant response rating, Lambsquarters [10, 14]: 98 | Plant response rating, Lambsquarters [10, 12]: 98 | Plant response rating, Lambsquarters [10, 13]: 98 | Plant response rating, Kochia (kochia (Kochia scoparia); [11]): 70 | Plant response rating, Kochia (kochia (Kochia scoparia); [14]): 75 | Plant response rating, Kochia (kochia (Kochia scoparia); [12]): 85 | Plant response rating, Kochia (kochia (Kochia scoparia); [13]): 100 | Plant response rating, Oat, Wild (wild oat (Avena fatua); [11]): 0 | Plant response rating, Oat, Wild (wild oat (Avena fatua); [14]): 0 | Plant response rating, Oat, Wild (wild oat (Avena fatua); [13]): 30
